# Laboratory results reported in PubChem BioAssay AID1581.
# Inconclusive results are not listed.
# Molecular target: PAR-4 (PAWR) - atypical PKC interaction
# Test: inhibitors of PAWR-atypical PKC interaction (AID 1581)
# Conditions: PAR4-aPKC protein interaction assay, normalized signal
row,SMILES,EC50 [µM]
1,CO[C@@]1(NC(=O)C(C(=O)O)c2ccc(O)cc2)C(=O)N2C(C(=O)O)=C(CSc3nnnn3C)CO[C@@H]21 (some centres not stated),11
2,NC[C@H](O)c1ccc(O)c(O)c1,29
3,O=c1c(O)c(-c2ccc(O)cc2O)oc2cc(O)cc(O)c12,10
4,N[C@@H](Cc1ccc(O)c(O)c1)C(=O)O,13
5,O=C1C=CC(=O)c2c(O)cccc21,18
6,C=Cc1c(C)c2cc3[nH]c(cc4nc(cc5nc(cc1[nH]2)C(C)=C5CCC(=O)O)C(CCC(=O)O)=C4C)c(C)c3C=C,14
7,O=c1c(O)cc2c(O)oc3c(=O)c(O)cc4c3c2c1CC=4O,21
